17 molecules from ChEMBL document CHEMBL3817847, “Design and synthesis of fused soluble epoxide hydrolase/peroxisome proliferator-activated receptor modulators” (Medchemcomm, 2016) can be followed below.

The source made the active and inactive calls. The rule behind the calls is not given here.

Assay [1] addresses T1, Bifunctional epoxide hydrolase 2 (Homo sapiens, UniProt P34913).
T1 sequence (P34913 whole entry): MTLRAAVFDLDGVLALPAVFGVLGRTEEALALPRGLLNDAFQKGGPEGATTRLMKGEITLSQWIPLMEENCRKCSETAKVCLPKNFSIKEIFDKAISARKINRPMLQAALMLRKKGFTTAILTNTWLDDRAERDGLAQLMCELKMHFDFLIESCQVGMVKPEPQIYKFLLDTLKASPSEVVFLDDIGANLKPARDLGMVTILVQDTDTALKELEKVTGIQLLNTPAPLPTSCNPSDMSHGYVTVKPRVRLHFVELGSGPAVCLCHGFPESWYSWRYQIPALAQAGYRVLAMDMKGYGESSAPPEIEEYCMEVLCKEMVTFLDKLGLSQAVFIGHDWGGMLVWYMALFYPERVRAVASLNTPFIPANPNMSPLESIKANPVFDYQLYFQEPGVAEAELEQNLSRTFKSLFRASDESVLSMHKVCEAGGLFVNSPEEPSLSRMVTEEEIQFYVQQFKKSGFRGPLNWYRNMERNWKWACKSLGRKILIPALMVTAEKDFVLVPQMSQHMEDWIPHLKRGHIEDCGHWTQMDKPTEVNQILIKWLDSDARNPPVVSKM
As to the kind of experiment: Inhibition of recombinant human […] assessed as product formation preincubated for 30 mins followed by addition of (3-phenyl-cyano-(6-methoxy-2-naphthalenyl)methyl ester-2-oxirane-acetic acid as substrate measured after 30 mins by fluorescence analysis.

Assay [2] deals with T2, Peroxisome proliferator-activated receptor alpha (Homo sapiens) (UniProt Q07869).
T2 sequence (whole entry): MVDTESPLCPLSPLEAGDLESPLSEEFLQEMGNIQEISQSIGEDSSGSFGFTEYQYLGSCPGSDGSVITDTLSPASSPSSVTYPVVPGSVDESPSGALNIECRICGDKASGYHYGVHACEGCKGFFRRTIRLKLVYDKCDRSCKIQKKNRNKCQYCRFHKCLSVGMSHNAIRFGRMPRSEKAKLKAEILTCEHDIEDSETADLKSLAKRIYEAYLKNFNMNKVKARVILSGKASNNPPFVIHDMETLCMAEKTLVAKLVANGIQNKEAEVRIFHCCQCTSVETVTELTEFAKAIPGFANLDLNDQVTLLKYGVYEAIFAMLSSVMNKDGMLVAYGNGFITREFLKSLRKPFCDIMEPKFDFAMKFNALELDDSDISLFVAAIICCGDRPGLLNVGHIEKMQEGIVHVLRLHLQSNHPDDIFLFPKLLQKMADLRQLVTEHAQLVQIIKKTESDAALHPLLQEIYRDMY
As to the kind of experiment: Agonist activity at Gal4-tagged human PPARalpha ligand binding domain expressed in COS-7 cells at 30 uM measured after overnight incubation by dual-glo luciferase reporter gene assay. Type of assay: cell-based.

Assay [3] addresses T3, Peroxisome proliferator-activated receptor gamma (Homo sapiens) (UniProt P37231).
T3 sequence (whole entry): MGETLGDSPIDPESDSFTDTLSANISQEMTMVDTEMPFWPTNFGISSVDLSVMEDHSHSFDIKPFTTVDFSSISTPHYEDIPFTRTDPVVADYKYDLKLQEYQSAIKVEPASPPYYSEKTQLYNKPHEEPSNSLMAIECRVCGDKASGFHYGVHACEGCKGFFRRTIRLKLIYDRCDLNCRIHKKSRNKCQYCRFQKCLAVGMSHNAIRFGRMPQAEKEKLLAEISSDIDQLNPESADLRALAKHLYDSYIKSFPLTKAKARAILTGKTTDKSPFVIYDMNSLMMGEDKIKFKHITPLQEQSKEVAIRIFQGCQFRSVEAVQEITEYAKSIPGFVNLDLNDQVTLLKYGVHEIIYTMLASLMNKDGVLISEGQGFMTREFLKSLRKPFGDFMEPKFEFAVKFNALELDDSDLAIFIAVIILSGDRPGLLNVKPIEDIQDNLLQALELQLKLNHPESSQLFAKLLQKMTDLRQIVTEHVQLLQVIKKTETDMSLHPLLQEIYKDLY
In words: Agonist activity at Gal4-tagged human PPARgamma ligand binding domain expressed in COS-7 cells at 30 uM measured after overnight incubation by dual-glo luciferase reporter gene assay. Type of assay: cell-based. A general note: Reporter assays use an easily measured gene product as a stand-in for the process of interest.

The target of assay [4] is T4, Peroxisome proliferator-activated receptor delta (Homo sapiens) (UniProt Q03181).
T4 sequence (whole entry): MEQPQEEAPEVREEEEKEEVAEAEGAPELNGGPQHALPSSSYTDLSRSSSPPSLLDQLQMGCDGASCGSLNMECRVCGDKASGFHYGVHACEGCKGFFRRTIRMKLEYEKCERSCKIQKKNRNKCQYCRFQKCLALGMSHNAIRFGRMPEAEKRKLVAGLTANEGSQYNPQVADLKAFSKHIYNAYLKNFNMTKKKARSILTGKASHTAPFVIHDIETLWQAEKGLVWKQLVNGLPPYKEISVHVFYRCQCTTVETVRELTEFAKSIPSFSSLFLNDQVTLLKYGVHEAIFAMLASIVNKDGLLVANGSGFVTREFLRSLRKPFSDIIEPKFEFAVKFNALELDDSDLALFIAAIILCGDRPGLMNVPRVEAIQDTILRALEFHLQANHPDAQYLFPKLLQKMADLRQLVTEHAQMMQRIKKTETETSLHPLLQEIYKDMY
As to the kind of experiment: Agonist activity at Gal4-tagged human PPARdelta ligand binding domain expressed in COS-7 cells at 30 uM measured after overnight incubation by dual-glo luciferase reporter gene assay. In kind it is cell-based.

Assay [5] concerns the target T5, Peroxisome proliferator-activated receptor gamma (Homo sapiens, UniProt P37231).
T5 sequence (P37231 whole entry): T3 sequence (whole entry)
As to the kind of experiment: Agonist activity at Gal4-tagged human PPARgamma ligand binding domain expressed in COS-7 cells measured after overnight incubation by dual-glo luciferase reporter gene assay. In kind it is cell-based.

Assay [6] has as its target T6, Peroxisome proliferator-activated receptor delta (Homo sapiens, UniProt Q03181).
T6 sequence (Q03181 whole entry): T4 sequence (whole entry)
As to the kind of experiment: Agonist activity at Gal4-tagged human PPARdelta ligand binding domain expressed in COS-7 cells measured after overnight incubation by dual-glo luciferase reporter gene assay. Type of assay: cell-based.

Assay [7] has as its target T7, Peroxisome proliferator-activated receptor alpha (Homo sapiens, UniProt Q07869).
T7 sequence (Q07869 whole entry): T2 sequence (whole entry)
In words: Agonist activity at Gal4-tagged human PPARalpha ligand binding domain expressed in COS-7 cells measured after overnight incubation by dual-glo luciferase reporter gene assay. Type of assay: cell-based.

Assay [8] has as its target T3, Peroxisome proliferator-activated receptor gamma (Homo sapiens). As to the kind of experiment: Agonist activity at Gal4-tagged human PPARgamma ligand binding domain expressed in COS-7 cells at 10 uM measured after overnight incubation by dual-glo luciferase reporter gene assay. Type of assay: cell-based.
In assay [9] the target is T2, Peroxisome proliferator-activated receptor alpha (Homo sapiens). As to the kind of experiment: Agonist activity at Gal4-tagged human PPARalpha ligand binding domain expressed in COS-7 cells at 10 um measured after overnight incubation by dual-glo luciferase reporter gene assay. Type of assay: cell-based.
Assay [10] deals with 3T3-L1. As to the kind of experiment: Agonist activity at PPAR in mouse 3T3L1 cells assessed as increase in adipocyte differentiation at 2 uM after 14 days by Oil Red O staining method. In kind it is cell-based.
For assay [11], the system named is 3T3-L1. As to the kind of experiment: Partial agonist activity at PPAR in mouse 3T3L1 cells assessed as increase in adipocyte differentiation after 14 days by Oil Red O staining method. In kind it is cell-based.

For `CC(Oc1ccc(CNC(=O)Nc2ccc(Cl)cc2)cc1)C(=O)O` (configuration not stated), in assay [1] (read-out: IC50), the IC50 – broadly, the midpoint of a concentration-inhibition curve – was 0.85 µM. Also, the outcome in [2], in [3] and in [4] was inactive.

Regarding `CC/C(=C\c1ccc(N2CCC(C(=O)NCc3ccccc3C(F)(F)F)CC2)cc1)C(=O)O`, the EC50 entry in assay [5] (cos-7), in [6] (cos-7) and in assay [7] (cos-7) was “Not Active” throughout. The IC50 in assay [1] (read-out: IC50) came to 0.027 µM.

On to `CNc1nc(C)nc(N[C@H]2CCC[C@@H](C(=O)NCc3ccc(C#N)cc3C(F)(F)F)C2)n1` [GSK2256294], for which the EC50 result in assay [5] (cos-7), in assay [6] (cos-7) and in assay [7] (cos-7) was “Not Active” throughout.

Take `CCCCCCC(Sc1nc(Cl)cc(N2CCC(C(=O)NCc3ccccc3C(F)(F)F)CC2)n1)C(=O)OCC` (configuration not stated): the concentration giving a half-maximal response (EC50) entry in assay [5] (cos-7), in assay [6] (cos-7) and in assay [7] (cos-7) was “Not Active” each time. Further, the IC50 in [1] (read-out: IC50) came to 2.5 µM.

With `O=C(Nc1ccc(I)cc1)NC1CCCCC1`, the EC50 entry in assay [6] (cos-7) and in [7] (cos-7) was “Not Active” each time. In assay [8], this molecule showed an Emax of 22%.

For `CCCCCCC(Sc1nc(Cl)cc(NCCCC(=O)NCc2ccccc2C(F)(F)F)n1)C(=O)OCC` (configuration not stated), the EC50 entry in [5] (cos-7), in assay [6] (cos-7) and in assay [7] (cos-7) was “Not Active” each time. In addition, the IC50 in assay [1] (read-out: IC50) turned out to be 1.3 µM.

Consider `CCOC(=O)C(C)Oc1ccc(CCNC(=O)Nc2ccc(Cl)cc2)cc1` (configuration not stated), for which the IC50 in assay [1] (read-out: IC50) was determined as 0.027 µM. Besides, the outcome in assay [2], in assay [3] and in assay [4] was inactive.

In the case of `CCOC(=O)C(C)Oc1ccc(CNC(=O)Nc2ccc(Cl)cc2)cc1` (configuration not stated), the IC50 in [1] (read-out: IC50) amounted to 0.064 µM. The outcome in assay [2], in assay [3] and in [4] was inactive.

In the case of `CCC(Cc1ccc(N2CCC(C(=O)NCc3ccccc3C(F)(F)F)CC2)cc1)C(=O)O` (configuration not stated), the EC50 entry in assay [5] (cos-7), in assay [6] (cos-7) and in [7] (cos-7) was “Not Active” throughout. Moreover, the IC50 in assay [1] (read-out: IC50) was determined as 0.075 µM.

For `CC(C)(Oc1ccc(CCNC(=O)c2ccc(Cl)cc2)cc1)C(=O)O` [BEZAFIBRATE], the EC50 (usually the concentration needed to bring the measured effect to its halfway point) is 15.4 µM in assay [5] (read-out: EC50) and 22.6 µM in assay [6] (read-out: EC50). Moreover, the IC50 result in assay [1] is “Not Active”.

On to `CC(Oc1ccc(CCNC(=O)Nc2ccc(Cl)cc2)cc1)C(=O)O` (configuration not stated), for which, in [1] (read-out: IC50), the IC50 turned out to be 0.57 µM. Moreover, the outcome in assay [2], in [3] and in assay [4] was inactive.

`CCCCCCC(Sc1nc(Cl)cc(N2CCC(C(=O)NCc3ccccc3C(F)(F)F)CC2)n1)C(=O)O` (configuration not stated): the EC50 entry in assay [5] (cos-7) and in [6] (cos-7) was “Not Active” in each case. Moreover, the IC50 in assay [1] (read-out: IC50) stood at 0.3 µM. Further, in assay [9], the Emax was 65%.

As for `CCOC(=O)C(CC)Cc1ccc(N2CCC(C(=O)NCc3ccccc3C(F)(F)F)CC2)cc1` (configuration not stated), the EC50 entry in [5] (cos-7), in assay [6] (cos-7) and in [7] (cos-7) was “Not Active” each time. For the same molecule, the IC50 in [1] (read-out: IC50) stood at 0.023 µM.

On to `CCOC(=O)/C(=C/c1ccc(N2CCC(C(=O)NCc3ccccc3C(F)(F)F)CC2)cc1)CC`, for which the EC50 result in [5] (cos-7), in assay [6] (cos-7) and in assay [7] (cos-7) was “Not Active” in each case. The IC50 in [1] (read-out: IC50) is 0.04 µM.

On to `CN(CCOc1ccc(CC2SC(=O)NC2=O)cc1)c1ccccn1` (configuration not stated), for which the result in the assay on 3T3-L1 [10] was Active.

Take `CCCCCCC(Sc1nc(Cl)cc(Nc2ccc(Nc3ccccc3)cc2)n1)C(=O)O` (configuration not stated): the concentration giving a half-maximal response (EC50) entry was “Not Active” in assay [6] (cos-7) and 0.067 µM in assay [7] (read-out: EC50). In assay [1], the IC50 entry was “Not Active”.

Take `CCCCCCC(Sc1nc(Cl)cc(NCCCC(=O)NCc2ccccc2C(F)(F)F)n1)C(=O)O` (configuration not stated): the EC50 in [5] (read-out: EC50) was 6 µM; in [6] (cos-7), “Not Active”; in assay [7] (read-out: EC50), 2.5 µM. Moreover, the Activity result in the assay on 3T3-L1 [11] was “Dose-dependent effect”. Further, the IC50 in assay [1] (read-out: IC50) was determined as 1.2 µM.
